The values below come from patent US20240238292A1, “TREATMENT OF INFECTIONS IN AND AROUND THE EYE” (UNIVERSITY OF MIAMI, priority 2021, published 2024).

The subject of assay [1] is Demodex. The assay is described as follows: Clinical treatment of Demodex blepharitis with topical 5-FU 1%. The assay is classed as in vivo, human. As for the experimental part: The diagnosis of ocular demodicosis was based on clinical examination and confirmed by lash sampling and identification of microscopic mites. Lashes with cylindrical dandruff (CD), (scales that form clear cuffs collaring the lash root) were specifically selected for epilation. External slit lamp photos of both eyes of each individual were taken prior to and after initiation of 5-FU treatment. […] Patients were treated with 5-FU in a cyclical fashion (one week of topical 5-FU 1% application 4 times per day in the affected eye(s) followed by a 3-week holiday comprised one cycle).

Assay [2] relates to Demodex. Briefly: Ex vivo treatment of Demodex on epilated lashes, kill time. The following applies: lashes immersed in 1-2 drops, time to cessation of all movement for minimum 60 seconds, examined every four hours. How it is done:
Epilated lashes from an individual with confirmed Demodex infection were mounted onto six slides and covered with a coverslip. The lashes were then immersed in 1-2 drops of treatment solution (50 mg/mL 5-FU, 5 mg/mL 5-FU, or balanced salt solution as a control (2 slides each)). The slides were examined under a microscope (at magnifications ranging from 20-40×) every four hours. The kill time was defined as the elapsed time between the addition of test solution and all cessation of movement of the body, legs, mouth and pedipalps for a minimum of 60 seconds. The kill time for Demodex-infested lashes immersed in 5 mg/mL of 5-FU, 50 mg/mL of 5-FU, and control were 32 hours, 44 hours, and 72 hours, respectively.

Assay [3] has as its system Demodex. Briefly: Clinical treatment of Demodex infestation with topical mitomycin C. The following applies: patient with conjunctival melanoma and heavy Demodex infestation, after 2 cycles. The assay is classed as in vivo, human.

In the case of `O=c1[nH]cc(F)c(=O)[nH]1` [5-FU, 5-fluorouracil], the “CDs (cylindrical dandruff) and inflammation” value in the assay with Demodex [1] (one individual with bilateral 5-FU treatment, both eyes compared to pre-treatment) was “reduction in CDs and inflammation”. Also, the “collarettes and lid inflammation by clinical examination” value in the assay on Demodex [1] (topical 5-FU 1% 4 times per day one week, 3-week holiday per cycle, at least 2 cycles, treated eyes compared to untreated eye) is “reduction in collarettes and lid inflammation”. Also, the values for the kill time with Demodex [2] (5 mg/mL 5-FU) and in the assay on Demodex [2] (50 mg/mL 5-FU) were 32 h and 44 h, respectively.
On to `CO[C@@]12[C@H](COC(N)=O)C3=C(C(=O)C(C)=C(N)C3=O)N1C[C@@H]1N[C@@H]12` [mitomycin C], for which the lash collarettes result in the assay on Demodex [3] was “dramatic reduction in lash collarettes”.
